Source: US20230085307A1, “PYRIDAZINONE COMPOUND AND HERBICIDE” (NISSAN CHEMICAL CORPORATION, priority 2019, published 2023)

Tests used:
[1] = system: late watergrass; experiment: Test Example 1: herbicidal activity, application before weed generation under submerged conditions (Table 16, symbol A); type: in vivo, late watergrass (Echinochloa oryzicola); settings: 320 g/ha applied herbicide
Method in brief: (§1)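 Alluvial soil was flooded to 4 cm depth, weed seeds were sown mixed and 2.5-leaf rice seedlings were transplanted. On sowing day, the compound's emulsion, diluted in water to a set dose, was applied to the water surface. Plants grew at 25–30 °C and were scored 0–5 after three weeks.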

[2] = system: Japanese bulrush; experiment: Test Example 1: herbicidal activity, application before weed generation under submerged conditions (Table 16, symbol B); type: in vivo, Japanese bulrush (Schoenoplectus juncoides); settings: 320 g/ha applied herbicide
Method in brief: as §1

[3] = system: oval-leafed pondweed; experiment: Test Example 1: herbicidal activity, application before weed generation under submerged conditions (Table 16, symbol C); type: in vivo, oval-leafed pondweed (Monochoria vaginalis); settings: 320 g/ha applied herbicide
Method in brief: as §1

[4] = system: barnyard grass; experiment: Test Example 3: herbicidal effect by foliage application, Wagner pot (Table 18, symbol H); type: in vivo, barnyard grass (Echinochloa crus-galli); settings: 320 g/ha
Method in brief: (§2)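 Plants were sown in alluvial soil held under 0.1–0.5 cm standing water and grown 14 days in a greenhouse at 25–30 °C. An emulsifiable formulation, water-diluted to the set dose, was then sprayed onto the foliage, and effects were scored three weeks later using previously defined criteria.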

[5] = system: Chinese sprangletop; experiment: Test Example 3: herbicidal effect by foliage application, Wagner pot (Table 18, symbol D); type: in vivo, chinese sprangletop (Leptochloa chinensis); settings: 320 g/ha
Method in brief: as §2

[6] = system: rice flat sedge; experiment: Test Example 3: herbicidal effect by foliage application, Wagner pot (Table 18, symbol E); type: in vivo, rice flat sedge (Cyperus iria); settings: 320 g/ha
Method in brief: as §2

[7] = system: southern crabgrass; experiment: Test Example 4: herbicidal effect by soil treatment (Table 19, symbol F); type: in vivo, southern crabgrass (Digitaria ciliaris); settings: amount of applied herbicide 320 g/ha
Method in brief: (§3)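 Pre-emergence style soil spray: seeds under ~1.5 cm sterilized diluvial soil received a uniform coat of emulsion diluted to the predetermined herbicide amount. Greenhouse 25–30° C; readout at week three on previously defined criteria.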

[8] = system: green foxtail; experiment: Test Example 4: herbicidal effect by soil treatment (Table 19, symbol G); type: in vivo, green foxtail (Setaria viridis); settings: amount of applied herbicide 320 g/ha
Method in brief: as §3

[9] = system: barnyard grass; experiment: Test Example 4: herbicidal effect by soil treatment (Table 19, symbol H); type: in vivo, barnyard grass (Echinochloa crus-galli); settings: amount of applied herbicide 320 g/ha
Method in brief: as §3

[10] = system: wild oat; experiment: Test Example 4: herbicidal effect by soil treatment (Table 19, symbol I); type: in vivo, wild oat (Avena fatua); settings: amount of applied herbicide 320 g/ha
Method in brief: as §3

[11] = system: blackgrass; experiment: Test Example 4: herbicidal effect by soil treatment (Table 19, symbol J); type: in vivo, blackgrass (Alopecurus myosuroides); settings: amount of applied herbicide 320 g/ha
Method in brief: as §3

[12] = system: Italian ryegrass; experiment: Test Example 4: herbicidal effect by soil treatment (Table 19, symbol K); type: in vivo, Italian ryegrass (Lolium multiflorum); settings: amount of applied herbicide 320 g/ha
Method in brief: as §3

[13] = system: windgrass; experiment: Test Example 4: herbicidal effect by soil treatment (Table 19, symbol L); type: in vivo, windgrass (Apera spica-venti); settings: amount of applied herbicide 320 g/ha
Method in brief: as §3

[14] = system: velvetleaf; experiment: Test Example 4: herbicidal effect by soil treatment (Table 19, symbol M); type: in vivo, velvetleaf (Abutilon theophrasti); settings: amount of applied herbicide 320 g/ha
Method in brief: as §3

[15] = system: redroot pigweed; experiment: Test Example 4: herbicidal effect by soil treatment (Table 19, symbol N); type: in vivo, redroot pigweed (Amaranthus retroflexus); settings: amount of applied herbicide 320 g/ha
Method in brief: as §3

[16] = system: lambsquarters; experiment: Test Example 4: herbicidal effect by soil treatment (Table 19, symbol O); type: in vivo, lambsquarters (Chenopodium album); settings: amount of applied herbicide 320 g/ha
Method in brief: as §3

[17] = system: chickweed; experiment: Test Example 4: herbicidal effect by soil treatment (Table 19, symbol P); type: in vivo, common chickweed (Stellaria media); settings: amount of applied herbicide 320 g/ha
Method in brief: as §3

[18] = system: false cleavers; experiment: Test Example 4: herbicidal effect by soil treatment (Table 19, symbol Q); type: in vivo, false cleavers (Galium spurium); settings: amount of applied herbicide 320 g/ha
Method in brief: as §3

[19] = system: persian speedwell; experiment: Test Example 4: herbicidal effect by soil treatment (Table 19, symbol R); type: in vivo, Persian speedwell (Veronica persica); settings: amount of applied herbicide 320 g/ha
Method in brief: as §3

[20] = system: southern crabgrass; experiment: Test Example 5: herbicidal effect by foliage application, plastic box (Table 20, symbol F); type: in vivo, southern crabgrass (Digitaria ciliaris); settings: foliage application, 320 g/ha, three weeks after application
Method in brief: (§4)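 Plants were sown into sterilized diluvial soil under about 1.5 cm cover and kept in a greenhouse at 25° C. to 30° C. Fourteen days on, foliage received an even spray of the diluted emulsion. Herbicidal or crop effect was judged three weeks afterwards.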

[21] = system: green foxtail; experiment: Test Example 5: herbicidal effect by foliage application, plastic box (Table 20, symbol G); type: in vivo, green foxtail (Setaria viridis); settings: foliage application, 320 g/ha, three weeks after application
Method in brief: as §4

[22] = system: barnyard grass; experiment: Test Example 5: herbicidal effect by foliage application, plastic box (Table 20, symbol H); type: in vivo, barnyard grass (Echinochloa crus-galli); settings: foliage application, 320 g/ha, three weeks after application
Method in brief: as §4

[23] = system: wild oat; experiment: Test Example 5: herbicidal effect by foliage application, plastic box (Table 20, symbol I); type: in vivo, wild oat (Avena fatua); settings: foliage application, 320 g/ha, three weeks after application
Method in brief: as §4

[24] = system: blackgrass; experiment: Test Example 5: herbicidal effect by foliage application, plastic box (Table 20, symbol J); type: in vivo, blackgrass (Alopecurus myosuroides); settings: foliage application, 320 g/ha, three weeks after application
Method in brief: as §4

[25] = system: Italian ryegrass; experiment: Test Example 5: herbicidal effect by foliage application, plastic box (Table 20, symbol K); type: in vivo, Italian ryegrass (Lolium multiflorum); settings: foliage application, 320 g/ha, three weeks after application
Method in brief: as §4

[26] = system: windgrass; experiment: Test Example 5: herbicidal effect by foliage application, plastic box (Table 20, symbol L); type: in vivo, windgrass (Apera spica-venti); settings: foliage application, 320 g/ha, three weeks after application
Method in brief: as §4

[27] = system: velvetleaf; experiment: Test Example 5: herbicidal effect by foliage application, plastic box (Table 20, symbol M); type: in vivo, velvetleaf (Abutilon theophrasti); settings: foliage application, 320 g/ha, three weeks after application
Method in brief: as §4

[28] = system: redroot pigweed; experiment: Test Example 5: herbicidal effect by foliage application, plastic box (Table 20, symbol N); type: in vivo, redroot pigweed (Amaranthus retroflexus); settings: foliage application, 320 g/ha, three weeks after application
Method in brief: as §4

[29] = system: lambsquarters; experiment: Test Example 5: herbicidal effect by foliage application, plastic box (Table 20, symbol O); type: in vivo, lambsquarters (Chenopodium album); settings: foliage application, 320 g/ha, three weeks after application
Method in brief: as §4

[30] = system: chickweed; experiment: Test Example 5: herbicidal effect by foliage application, plastic box (Table 20, symbol P); type: in vivo, common chickweed (Stellaria media); settings: foliage application, 320 g/ha, three weeks after application
Method in brief: as §4

[31] = system: false cleavers; experiment: Test Example 5: herbicidal effect by foliage application, plastic box (Table 20, symbol Q); type: in vivo, false cleavers (Galium spurium); settings: foliage application, 320 g/ha, three weeks after application
Method in brief: as §4

[32] = system: persian speedwell; experiment: Test Example 5: herbicidal effect by foliage application, plastic box (Table 20, symbol R); type: in vivo, Persian speedwell (Veronica persica); settings: foliage application, 320 g/ha, three weeks after application
Method in brief: as §4

Row | SMILES | Herbicidal effect on A: late watergrass (grade 0-5) [1] | Herbicidal effect on B: Japanese bulrush (grade 0-5) [2] | Herbicidal effect on C: oval-leafed pondweed (grade 0-5) [3] | herbicidal effect on H (barnyard grass), rating 0-5 [4] | herbicidal effect on D (Chinese sprangletop), rating 0-5 [5] | herbicidal effect on E (rice flat sedge), rating 0-5 [6] | herbicidal effect rating, F: southern crabgrass [7] | herbicidal effect rating, G: green foxtail [8] | herbicidal effect rating, H: barnyard grass [9] | herbicidal effect rating, I: wild oat [10] | herbicidal effect rating, J: blackgrass [11] | herbicidal effect rating, K: Italian ryegrass [12] | herbicidal effect rating, L: windgrass [13] | herbicidal effect rating, M: velvetleaf [14] | herbicidal effect rating, N: redroot pigweed [15] | herbicidal effect rating, O: lambsquarters [16] | herbicidal effect rating, P: chickweed [17] | herbicidal effect rating, Q: false cleavers [18] | herbicidal effect rating, R: persian speedwell [19] | herbicidal effect grade, F: southern crabgrass [20] | also measured
1 | CCCCc1ccc(-c2sc3ccccc3c2-c2c(O)c(C)nn(C)c2=O)cc1 [1-005] | 2 (Herbicidal rate of 20% or more and less than 40%) | 0 (Herbicidal rate of 5% or less (almost no effect)) | 0 (Herbicidal rate of 5% or less (almost no effect)) | 4 (Herbicidal rate of 70% or more and less than 90%) | 0 (Herbicidal rate of 5% or less (almost no effect)) | 5 (Herbicidal rate of 90% or more (almost completely withered)) | 0 (Herbicidal rate of 5% or less (almost no effect)) | 0 (Herbicidal rate of 5% or less (almost no effect)) | 0 (Herbicidal rate of 5% or less (almost no effect)) | 0 (Herbicidal rate of 5% or less (almost no effect)) | 0 (Herbicidal rate of 5% or less (almost no effect)) | 0 (Herbicidal rate of 5% or less (almost no effect)) | 0 (Herbicidal rate of 5% or less (almost no effect)) | 0 (Herbicidal rate of 5% or less (almost no effect)) | 0 (Herbicidal rate of 5% or less (almost no effect)) | 0 (Herbicidal rate of 5% or less (almost no effect)) | 0 (Herbicidal rate of 5% or less (almost no effect)) | 0 (Herbicidal rate of 5% or less (almost no effect)) | 4 (Herbicidal rate of 70% or more and less than 90%) | 0 (Herbicidal rate of 5% or less (almost no effect)) | herbicidal effect grade, G: green foxtail [21]: 0 (Herbicidal rate of 5% or less (almost no effect)); herbicidal effect grade, H: barnyard grass [22]: 0 (Herbicidal rate of 5% or less (almost no effect)); herbicidal effect grade, I: wild oat [23]: 0 (Herbicidal rate of 5% or less (almost no effect)); herbicidal effect grade, J: blackgrass [24]: 0 (Herbicidal rate of 5% or less (almost no effect)); herbicidal effect grade, K: Italian ryegrass [25]: 0 (Herbicidal rate of 5% or less (almost no effect)); herbicidal effect grade, L: windgrass [26]: 0 (Herbicidal rate of 5% or less (almost no effect)); herbicidal effect grade, M: velvetleaf [27]: 3 (Herbicidal rate of 40% or more and less than 70%); herbicidal effect grade, N: redroot pigweed [28]: 4 (Herbicidal rate of 70% or more and less than 90%); herbicidal effect grade, O: lambsquarters [29]: 5 (Herbicidal rate of 90% or more (almost completely withered)); herbicidal effect grade, P: chickweed [30]: 5 (Herbicidal rate of 90% or more (almost completely withered)); herbicidal effect grade, Q: false cleavers [31]: 0 (Herbicidal rate of 5% or less (almost no effect)); herbicidal effect grade, R: persian speedwell [32]: 5 (Herbicidal rate of 90% or more (almost completely withered))
2 | CCCCc1ccc(-c2sc3ccccc3c2-c2c(OC(=O)CCC)c(C)nn(C)c2=O)cc1 [1-006] | 3 (Herbicidal rate of 40% or more and less than 70%) | 1 (Herbicidal rate of 5% or more and less than 20%) | 0 (Herbicidal rate of 5% or less (almost no effect)) | 3 (Herbicidal rate of 40% or more and less than 70%) | 0 (Herbicidal rate of 5% or less (almost no effect)) | 5 (Herbicidal rate of 90% or more (almost completely withered)) | 0 (Herbicidal rate of 5% or less (almost no effect)) | 0 (Herbicidal rate of 5% or less (almost no effect)) | 0 (Herbicidal rate of 5% or less (almost no effect)) | 0 (Herbicidal rate of 5% or less (almost no effect)) | 0 (Herbicidal rate of 5% or less (almost no effect)) | 0 (Herbicidal rate of 5% or less (almost no effect)) | 0 (Herbicidal rate of 5% or less (almost no effect)) | 0 (Herbicidal rate of 5% or less (almost no effect)) | 0 (Herbicidal rate of 5% or less (almost no effect)) | 4 (Herbicidal rate of 70% or more and less than 90%) | 0 (Herbicidal rate of 5% or less (almost no effect)) | 0 (Herbicidal rate of 5% or less (almost no effect)) | 3 (Herbicidal rate of 40% or more and less than 70%) | 0 (Herbicidal rate of 5% or less (almost no effect)) | herbicidal effect grade, G: green foxtail [21]: 0 (Herbicidal rate of 5% or less (almost no effect)); herbicidal effect grade, H: barnyard grass [22]: 0 (Herbicidal rate of 5% or less (almost no effect)); herbicidal effect grade, I: wild oat [23]: 0 (Herbicidal rate of 5% or less (almost no effect)); herbicidal effect grade, J: blackgrass [24]: 0 (Herbicidal rate of 5% or less (almost no effect)); herbicidal effect grade, K: Italian ryegrass [25]: 0 (Herbicidal rate of 5% or less (almost no effect)); herbicidal effect grade, L: windgrass [26]: 0 (Herbicidal rate of 5% or less (almost no effect)); herbicidal effect grade, M: velvetleaf [27]: 4 (Herbicidal rate of 70% or more and less than 90%); herbicidal effect grade, N: redroot pigweed [28]: 5 (Herbicidal rate of 90% or more (almost completely withered)); herbicidal effect grade, O: lambsquarters [29]: 4 (Herbicidal rate of 70% or more and less than 90%); herbicidal effect grade, P: chickweed [30]: 5 (Herbicidal rate of 90% or more (almost completely withered)); herbicidal effect grade, Q: false cleavers [31]: 0 (Herbicidal rate of 5% or less (almost no effect)); herbicidal effect grade, R: persian speedwell [32]: 5 (Herbicidal rate of 90% or more (almost completely withered))
